# Measurements published in US6576652B2, “Use of an angiotensin II receptor antagonist for the preparation of drugs to increase the survival rate of renal transplant patients” (Merck Sharp & Dohme (Italia) S.p.A., priority 1997, dated 2003).
# Assays:
# conscious Dogs = assay: Hypotensive effects before and after furosemide in conscious dogs; format: in vivo, dog; settings: cumulative iv 0.3 to 3 mg/kg
# Source text: The hypotensive effects of 2-butyl-4-chloro-1-[(2′-(1H-tetrazol-5-yl)biphenyl-4-yl)methyl]-5-hydroxymethylimidazole sodium salt were compared before and after furosemide administration to conscious Dogs.
# [1] = system: bilaterally nephrectomized Lewis rats transplanted with kidney from Fisher 344 donor rat; assay: Chronic renal allograft failure rat model, 6 month follow-up; settings: for FSGS % (range) / Animal survival / Proteinuria / SBP: end of 6 month follow-up; for Animal survival: allograft rats; for Proteinuria / SBP: mean ±SD
# Method: Transplanted rats received cyclosporine (5 mg/kg/day i.m.) for the first 10 days to prevent acute rejection, and doses of antihypertensive drugs were adjusted to maintain blood pressure within the normal range.
# [2] = system: awake rats made hypertensive by ligation of the left renal artery; assay: Antihypertensive effects in renal hypertensive rats; format: in vivo, rat; settings: Table 1
# Method: This procedure increases blood pressure by increasing renin production with consequent elevation of All levels. Compounds are administered orally at 100 mg/kg and/or intravenously via a cannula in the jugular vein at 10 mg/kg. Arterial blood pressure is continuously measured directly through a carotid artery cannula and recorded using a pressure transducer and a polygraph. Blood pressure levels after treatment are compared to pretreatment levels to determine the antihypertensive effects of the compounds (See Table 1). Compounds listed in Table 2 were tested in the same manner as described for Table 1, except that in the test for anti hypertensive effects in renal hypertensive rats, the compounds were administered orally at 30 mg/kg and intravenously at 3 mg/kg.
structure (smiles),measurement,setting,value
CCCCc1nc(Cl)c(CO)n1Cc1ccc(-c2ccccc2-c2nnn[nH]2)cc1.[Na] [2-butyl-4-chloro-1-[(2′-(1H-tetrazol-5-yl)biphenyl-4-yl)methyl]-5-hydroxymethylimidazole sodium salt],Effect on blood pressure,conscious Dogs; after furosemide 10 mg/kg im at 18 and 2 hours before,caused a significant decrease
same,Inhibition of pressor response to AII,conscious Dogs; after furosemide 10 mg/kg im,inhibited the pressor response to AII at the two higher doses
same,Inhibition of pressor response to AII,"conscious Dogs; before furosemide, 10 min post dose",effective in inhibiting the pressor response to AII
same,Effect on blood pressure,"conscious Dogs; normotensive conscious dogs, before furosemide, n=4",did not lower blood pressure
"CCOC(=O)C1=C(C)NC(C)=C(C(=O)OCC)C1c1ccccc1/C=C/C(=O)OC(C)(C)C [Lacidipine, reference compound]",FSGS % (range),[1],15 (10-20) %
same,Animal survival,[1],34%
same,Proteinuria,[1],167 ± 26° mg/day
same,SBP,[1],125 ± 7 mm HG
"CCCCc1nc(Cl)c(CO)n1Cc1ccc(-c2ccccc2-c2nn[nH]n2)cc1 [Losartan, 2-n-butyl-4-chloro-5-hydroxymothyl-1-[(2′-(1H-tetrazol-5-yl)biphenil-4-yl)methyl]imidazole]",Protection from chronic allograft injury and long-term animal survival,[1]; at comparable level of SBP control,effectively protects animals from chronic allograft injury
same,FSGS % (range),[1],3 (0-10) %
same,Animal survival,[1],100%
same,Proteinuria,[1],71 ± 46 mg/day
same,SBP,[1],114 ± 12 mm HG
same,Antihypertensive Effects in Renal Hypertensive Rats Intravenous Activity,"[2]; intravenous, 10 mg/kg","+ (Significant decrease in blood pressure at 10, mg/kg or less)"
same,Antihypertensive Effects in Renal Hypertensive Rats Oral Activity,"[2]; oral, 100 mg/kg",+ (Significant decrease in blood pressure at 100 mg/kg or less)
